Test system: 855422-203-R-J1-PDC spheroids with HUVEC/MSC, viability
Test: Anticancer human tumor 855422-203-R-J1-PDC patient-derived bladder carcinoma cell line growth inhibition [PI3K]
Conditions: for IC50: curve of first compound; for viability, T/C: stronger effect = lower value; active = viability on the fitted dose curve at most 10% of control; inactive = the rest
Outline: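 Complex 3D spheroids (cancer cells + endothelial HUVEC + mesenchymal stem cells); drug pairs of targeted agent x inavolisib/alpelisib/duvelisib/copanlisib; half-log series from ~Cmax, max 10 microM if Cmax unknown; endpoint viability.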

[1] = second compound 0.0316 µM, first compound 0.0316 µM
[2] = second compound 0.0316 µM, first compound 0.1 µM
[3] = second compound 0.1 µM, first compound 0.0316 µM
[4] = second compound 0.1 µM, first compound 0.1 µM
[5] = second compound 0.316 µM, first compound 0.0316 µM
[6] = second compound 0.316 µM, first compound 0.1 µM
[7] = second compound 1 µM, first compound 0.0316 µM
[8] = second compound 1 µM, first compound 0.1 µM
[9] = second compound 3.16 µM, first compound 0.0316 µM
[10] = second compound 3.16 µM, first compound 0.1 µM
[11] = second compound 10 µM, first compound 0.0316 µM
[12] = second compound 10 µM, first compound 0.1 µM
[13] = second compound 0.0316 µM, first compound 0.316 µM
[14] = second compound 0.0316 µM, first compound 1 µM
[15] = second compound 0.0316 µM, first compound 3.16 µM
[16] = second compound 0.0316 µM, first compound 10 µM
[17] = second compound 0.1 µM, first compound 0.316 µM
[18] = second compound 0.1 µM, first compound 1 µM
[19] = second compound 0.1 µM, first compound 3.16 µM
[20] = second compound 0.1 µM, first compound 10 µM
[21] = second compound 0.316 µM, first compound 0.316 µM
[22] = second compound 0.316 µM, first compound 1 µM
[23] = second compound 0.316 µM, first compound 3.16 µM
[24] = second compound 0.316 µM, first compound 10 µM
[25] = second compound 1 µM, first compound 0.316 µM
[26] = second compound 1 µM, first compound 1 µM
[27] = second compound 1 µM, first compound 3.16 µM
[28] = second compound 1 µM, first compound 10 µM
[29] = second compound 3.16 µM, first compound 0.316 µM
[30] = second compound 3.16 µM, first compound 1 µM
[31] = second compound 3.16 µM, first compound 3.16 µM
[32] = second compound 3.16 µM, first compound 10 µM
[33] = second compound 10 µM, first compound 0.316 µM
[34] = second compound 10 µM, first compound 1 µM
[35] = second compound 10 µM, first compound 3.16 µM
[36] = second compound 10 µM, first compound 10 µM
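Note: agents incubated with spheroids for one week before read-out.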
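Throughout, for viability, T/C: 100% = DMSO vehicle-treated control wells.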

CC(C)n1nc(-c2ccc3oc(N)nc3c2)c2c(N)ncnc21 + CC(Nc1ncnc2nc[nH]c12)c1cc2cccc(Cl)c2c(=O)n1-c1ccccc1
0.0502 µM: IC50 (second compound 0.1 µM)
0.0173 µM: IC50 (second compound 10 µM)
0.0387 µM: IC50 (second compound 1 µM)
0.0334 µM: IC50 (second compound 3.16 µM)
0.0465 µM: IC50 (second compound 0.316 µM)
0.0508 µM: IC50 (second compound 0.0316 µM)
inactive: viability, T/C (second compound 0.0316 µM, first compound 0.000316 µM) 111% | viability, T/C (second compound 0.0316 µM, first compound 0.001 µM) 97.1% | viability, T/C (second compound 0.0316 µM, first compound 0.00316 µM) 121% | viability, T/C (second compound 0.0316 µM, first compound 0.01 µM) 98.6% | viability, T/C [1] 74.3% | viability, T/C [2] 15.9% | viability, T/C (second compound 0.1 µM, first compound 0.000316 µM) 110% | viability, T/C (second compound 0.1 µM, first compound 0.001 µM) 108% | viability, T/C (second compound 0.1 µM, first compound 0.00316 µM) 107% | viability, T/C (second compound 0.1 µM, first compound 0.01 µM) 98.1% | viability, T/C [3] 74% | viability, T/C [4] 14.4% | viability, T/C (second compound 0.316 µM, first compound 0.000316 µM) 100% | viability, T/C (second compound 0.316 µM, first compound 0.001 µM) 106% | viability, T/C (second compound 0.316 µM, first compound 0.00316 µM) 102% | viability, T/C (second compound 0.316 µM, first compound 0.01 µM) 99.3% | viability, T/C [5] 69.1% | viability, T/C [6] 12.1% | viability, T/C (second compound 1 µM, first compound 0.000316 µM) 110% | viability, T/C (second compound 1 µM, first compound 0.001 µM) 91.2% | viability, T/C (second compound 1 µM, first compound 0.00316 µM) 100% | viability, T/C (second compound 1 µM, first compound 0.01 µM) 96.9% | viability, T/C [7] 57.6% | viability, T/C [8] 14.1% | viability, T/C (second compound 3.16 µM, first compound 0.000316 µM) 95% | viability, T/C (second compound 3.16 µM, first compound 0.001 µM) 91% | viability, T/C (second compound 3.16 µM, first compound 0.00316 µM) 93.9% | viability, T/C (second compound 3.16 µM, first compound 0.01 µM) 78.7% | viability, T/C [9] 52.2% | viability, T/C [10] 12.9% | viability, T/C (second compound 10 µM, first compound 0.000316 µM) 81.5% | viability, T/C (second compound 10 µM, first compound 0.001 µM) 81% | viability, T/C (second compound 10 µM, first compound 0.00316 µM) 80.3% | viability, T/C (second compound 10 µM, first compound 0.01 µM) 59% | viability, T/C [11] 38.2% | viability, T/C [12] 13.6%

CC1(C)CCC(CN2CCN(c3ccc(C(=O)NS(=O)(=O)c4ccc(NCC5CCOCC5)c([N+](=O)[O-])c4)c(Oc4cnc5[nH]ccc5c4)c3)CC2)=C(c2ccc(Cl)cc2)C1 + CC(Nc1ncnc2nc[nH]c12)c1cc2cccc(Cl)c2c(=O)n1-c1ccccc1
active: viability, T/C [16] 2.05% | viability, T/C [20] 1.83% | viability, T/C [24] 2.05% | viability, T/C [28] 2.34% | viability, T/C [32] 2.02% | viability, T/C [36] 2.02%
5.04 µM: IC50 (second compound 1 µM)
5.09 µM: IC50 (second compound 3.16 µM)
4.97 µM: IC50 (second compound 0.0316 µM)
inactive: viability, T/C [1] 118% | viability, T/C [2] 88.3% | viability, T/C [13] 114% | viability, T/C [14] 105% | viability, T/C [15] 81.1% | viability, T/C [3] 92% | viability, T/C [4] 101% | viability, T/C [17] 111% | viability, T/C [18] 117% | viability, T/C [19] 78.8% | viability, T/C [5] 104% | viability, T/C [6] 107% | viability, T/C [21] 105% | viability, T/C [22] 106% | viability, T/C [23] 84.2% | viability, T/C [7] 95.6% | viability, T/C [8] 106% | viability, T/C [25] 103% | viability, T/C [26] 98.4% | viability, T/C [27] 82.5% | viability, T/C [9] 99.9% | viability, T/C [10] 96.9% | viability, T/C [29] 104% | viability, T/C [30] 97.9% | viability, T/C [31] 83.9% | viability, T/C [11] 97.2% | viability, T/C [12] 79.9% | viability, T/C [33] 103% | viability, T/C [34] 89.1% | viability, T/C [35] 85.6%
4.87 µM: IC50 (second compound 0.1 µM)
5.11 µM: IC50 (second compound 0.316 µM)
5.17 µM: IC50 (second compound 10 µM)

C[C@@H](NC(=O)c1ncnc(N)c1Cl)c1ncc(C(=O)Nc2cc(C(F)(F)F)c(Cl)cn2)s1 + CC(Nc1ncnc2nc[nH]c12)c1cc2cccc(Cl)c2c(=O)n1-c1ccccc1
> 10 µM: IC50 (second compound 0.0316 µM) | IC50 (second compound 0.1 µM) | IC50 (second compound 0.316 µM) | IC50 (second compound 1 µM) | IC50 (second compound 3.16 µM) | IC50 (second compound 10 µM)
inactive: viability, T/C [1] 120% | viability, T/C [2] 109% | viability, T/C [13] 109% | viability, T/C [14] 116% | viability, T/C [15] 131% | viability, T/C [16] 117% | viability, T/C [3] 112% | viability, T/C [4] 100% | viability, T/C [17] 111% | viability, T/C [18] 114% | viability, T/C [19] 116% | viability, T/C [20] 133% | viability, T/C [5] 100% | viability, T/C [6] 115% | viability, T/C [21] 105% | viability, T/C [22] 103% | viability, T/C [23] 136% | viability, T/C [24] 109% | viability, T/C [7] 85.2% | viability, T/C [8] 102% | viability, T/C [25] 101% | viability, T/C [26] 106% | viability, T/C [27] 120% | viability, T/C [28] 107% | viability, T/C [9] 94.8% | viability, T/C [10] 108% | viability, T/C [29] 94.3% | viability, T/C [30] 93.3% | viability, T/C [31] 106% | viability, T/C [32] 82.7% | viability, T/C [11] 82.7% | viability, T/C [12] 75.7% | viability, T/C [33] 93% | viability, T/C [34] 85.6% | viability, T/C [35] 69.6% | viability, T/C [36] 54.4%

Reference: PubChem BioAssay AID1963967 (Molecular Pharmacology Branch, DTP, NCI, 2024)
